Source: the NIST ThermoML archive (doi:10.1016/j.jct.2018.12.021)

Assay: mn = molality of the nth substance listed, in mol/kg
Settings: for electrical conductivity / mass density: 100 kPa, Liquid; for electrical conductivity: Direct current cell with electrodes; for mass density: Vibrating tube method; for surface tension liquid-gas: Ring tensiometer

CCCCCCCCCCCC[n+]1ccsc1.[Br-] [N-dodecylthiazolium bromide] + O
Settings	electrical conductivity [S/m]	mass density [kg/m3]	surface tension liquid-gas [mN/m]
293.15 K, m1 = 0.00122	–	998.24	–
293.15 K, m1 = 0.00157	0.0131	998.27	–
293.15 K, m1 = 0.00191	–	998.29	–
293.15 K, m1 = 0.00201	0.017	998.3	–
293.15 K, m1 = 0.00258	–	998.33	–
293.15 K, m1 = 0.00299	0.0246	998.36	–
293.15 K, m1 = 0.00326	–	998.38	–
293.15 K, m1 = 0.00407	0.033	998.43	–
293.15 K, m1 = 0.00429	–	998.45	–
293.15 K, m1 = 0.00507	0.0421	998.5	–
293.15 K, m1 = 0.00548	–	998.53	–
293.15 K, m1 = 0.00602	0.0483	998.57	–
293.15 K, m1 = 0.00698	0.0568	998.64	–
293.15 K, m1 = 0.00753	0.0603	998.68	–
293.15 K, m1 = 0.00905	0.0699	998.78	–
293.15 K, m1 = 0.01006	0.0754	998.85	–
293.15 K, m1 = 0.01266	0.0892	999.01	–
293.15 K, m1 = 0.01513	0.0958	999.17	–
293.15 K, m1 = 0.01771	0.103	999.33	–
293.15 K, m1 = 0.01974	0.107	999.46	–
293.15 K, m1 = 0.02301	0.116	999.66	–
293.15 K, m1 = 0.02601	0.123	999.84	–
298.15 K, m1 = 0.00122	–	997.08	–
298.15 K, m1 = 0.00157	0.0147	997.1	–
298.15 K, m1 = 0.00191	–	997.12	–
298.15 K, m1 = 0.00201	0.0189	997.13	–
298.15 K, m1 = 0.00258	–	997.16	–
298.15 K, m1 = 0.00299	0.0276	997.19	–
298.15 K, m1 = 0.00326	–	997.21	–
298.15 K, m1 = 0.00407	0.0365	997.26	–
298.15 K, m1 = 0.00429	–	997.28	–
298.15 K, m1 = 0.00507	0.0469	997.33	–
298.15 K, m1 = 0.00548	–	997.36	–
298.15 K, m1 = 0.00602	0.0535	997.39	–
298.15 K, m1 = 0.00698	0.0632	997.46	–
298.15 K, m1 = 0.00753	0.0671	997.5	–
298.15 K, m1 = 0.00905	0.0779	997.61	–
298.15 K, m1 = 0.01006	0.0845	997.68	–
298.15 K, m1 = 0.01266	0.1	997.84	–
298.15 K, m1 = 0.01513	0.11	998	–
298.15 K, m1 = 0.01771	0.117	998.16	–
298.15 K, m1 = 0.01974	0.123	998.29	–
298.15 K, m1 = 0.02301	0.132	998.49	–
298.15 K, m1 = 0.02601	0.14	998.67	–
303.15 K, m1 = 0.00122	–	995.67	–
303.15 K, m1 = 0.00157	0.0164	995.69	60.2
303.15 K, m1 = 0.00191	–	995.71	–
303.15 K, m1 = 0.00201	0.0209	995.72	57.03
303.15 K, m1 = 0.00258	–	995.75	–
303.15 K, m1 = 0.00299	0.0305	995.78	53.96
303.15 K, m1 = 0.00326	–	995.8	–
303.15 K, m1 = 0.00407	0.0402	995.85	49.57
303.15 K, m1 = 0.00429	–	995.87	–
303.15 K, m1 = 0.00507	0.0517	995.92	43.38
303.15 K, m1 = 0.00548	–	995.95	–
303.15 K, m1 = 0.00602	0.0589	995.98	41.31
303.15 K, m1 = 0.00698	0.0694	996.04	38.15
303.15 K, m1 = 0.00753	0.0734	996.08	37.87
303.15 K, m1 = 0.00905	0.0859	996.18	32.2
303.15 K, m1 = 0.01006	0.093	996.25	32.54
303.15 K, m1 = 0.01266	0.117	996.42	32.07
303.15 K, m1 = 0.01513	0.125	996.57	32.43
303.15 K, m1 = 0.01771	0.132	996.72	31.44
303.15 K, m1 = 0.01974	0.138	996.84	31.87
303.15 K, m1 = 0.02301	0.148	997.04	–
303.15 K, m1 = 0.02601	0.156	997.2	32.42
308.15 K, m1 = 0.00122	–	994.05	–
308.15 K, m1 = 0.00157	0.018	994.07	–
308.15 K, m1 = 0.00191	–	994.09	–
308.15 K, m1 = 0.00201	0.0229	994.1	–
308.15 K, m1 = 0.00258	–	994.14	–
308.15 K, m1 = 0.00299	0.0334	994.17	–
308.15 K, m1 = 0.00326	–	994.18	–
308.15 K, m1 = 0.00407	0.0443	994.24	–
308.15 K, m1 = 0.00429	–	994.25	–
308.15 K, m1 = 0.00507	0.0563	994.3	–
308.15 K, m1 = 0.00548	–	994.33	–
308.15 K, m1 = 0.00602	0.0646	994.36	–
308.15 K, m1 = 0.00698	0.0757	994.42	–
308.15 K, m1 = 0.00753	0.0803	994.46	–
308.15 K, m1 = 0.00905	0.0978	994.55	–
308.15 K, m1 = 0.01006	0.107	994.63	–
308.15 K, m1 = 0.01266	0.131	994.78	–
308.15 K, m1 = 0.01513	0.141	994.93	–
308.15 K, m1 = 0.01771	0.148	995.08	–
308.15 K, m1 = 0.01974	0.156	995.2	–
308.15 K, m1 = 0.02301	0.165	995.4	–
308.15 K, m1 = 0.02601	0.174	995.56	–
313.15 K, m1 = 0.00122	–	992.22	–
313.15 K, m1 = 0.00157	0.0197	992.24	–
313.15 K, m1 = 0.00191	–	992.26	–
313.15 K, m1 = 0.00201	0.025	992.27	–
313.15 K, m1 = 0.00258	–	992.3	–
313.15 K, m1 = 0.00299	0.0366	992.33	–
313.15 K, m1 = 0.00326	–	992.35	–
313.15 K, m1 = 0.00407	0.0485	992.4	–
313.15 K, m1 = 0.00429	–	992.42	–
313.15 K, m1 = 0.00507	0.0614	992.46	–
313.15 K, m1 = 0.00548	–	992.49	–
313.15 K, m1 = 0.00602	0.0703	992.52	–
313.15 K, m1 = 0.00698	0.0838	992.58	–
313.15 K, m1 = 0.00753	0.0904	992.62	–
313.15 K, m1 = 0.00905	0.11	992.72	–
313.15 K, m1 = 0.01006	0.122	992.79	–
313.15 K, m1 = 0.01266	0.146	992.94	–
313.15 K, m1 = 0.01513	0.159	993.07	–
313.15 K, m1 = 0.01771	0.171	993.22	–
313.15 K, m1 = 0.01974	0.177	993.33	–
313.15 K, m1 = 0.02301	0.187	993.52	–
313.15 K, m1 = 0.02601	0.196	993.68	–
